Laboratory results: paper PMC9897788, “Design, synthesis and cytotoxic evaluation of novel bis-thiazole derivatives as preferential Pim1 kinase inhibitors with in vivo and in silico study” (Journal of Enzyme Inhibition and Medicinal Chemistry, 2023)

Tests used:
Assay in all cases: NCI 60 cell one-dose screening (SRB)
Assay type in all cases: cell-based
M14 = settings: Homo sapiens; M14, Melanoma; single dose 10 µM, 48 h; read-out: Percentage of cellular growth inhibition
Outline: (§1)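 Growth percentage, referenced to time-zero and drug-free wells and measured by SRB absorbance (515 nm), was subtracted from 100 to give inhibition. Cells had been pre-grown 24 h, then incubated 48 h at 37 °C, 5% CO2 with test compound at 10 µM final.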

BT-549 = settings: Homo sapiens; BT-549, Breast Cancer; single dose 10 µM, 48 h; read-out: Percentage of cellular growth inhibition
Outline: as §1

SF-268 = settings: Homo sapiens; SF-268, CNS Cancer; single dose 10 µM, 48 h; read-out: Percentage of cellular growth inhibition
Outline: as §1

SK-OV-3 = settings: Homo sapiens; SK-OV-3, Ovarian Cancer; single dose 10 µM, 48 h; read-out: Percentage of cellular growth inhibition
Outline: as §1

SN12C = settings: Homo sapiens, Renal Cancer, single dose 10 µM, 48 h, read-out: Percentage of cellular growth inhibition
Outline: as §1

U251 = settings: Homo sapiens, U-251; U251, CNS Cancer; single dose 10 µM, 48 h; read-out: Percentage of cellular growth inhibition
Outline: as §1

OVCAR-4 = settings: Homo sapiens; OVCAR-4, Ovarian Cancer; single dose 10 µM, 48 h; read-out: Percentage of cellular growth inhibition
Outline: as §1

MALME-3M = settings: Homo sapiens, Melanoma, single dose 10 µM, 48 h, read-out: Percentage of cellular growth inhibition
Outline: as §1

K-562 = settings: Homo sapiens, K562; K-562, Leukemia; single dose 10 µM, 48 h; read-out: Percentage of cellular growth inhibition
Outline: as §1

EKVX = settings: Homo sapiens, Non-Small Cell Lung Cancer, single dose 10 µM, 48 h, read-out: Percentage of cellular growth inhibition
Outline: as §1

A549/ATCC = settings: Homo sapiens, Non-Small Cell Lung Cancer, single dose 10 µM, 48 h, read-out: Percentage of cellular growth inhibition
Outline: as §1

OVCAR-8 = settings: Homo sapiens; OVCAR-8, Ovarian Cancer; single dose 10 µM, 48 h; read-out: Percentage of cellular growth inhibition
Outline: as §1

NCI/ADR-RES = settings: Homo sapiens, Ovarian Cancer, single dose 10 µM, 48 h, read-out: Percentage of cellular growth inhibition
Outline: as §1

UO-31 = settings: Homo sapiens; UO-31, Renal Cancer; single dose 10 µM, 48 h; read-out: Percentage of cellular growth inhibition
Outline: as §1

HCC-2998 = settings: Homo sapiens; HCC-2998, Colon Cancer; single dose 10 µM, 48 h; read-out: Percentage of cellular growth inhibition
Outline: as §1

HCT-116 = settings: Homo sapiens; HCT-116, Colon Cancer; single dose 10 µM, 48 h; read-out: Percentage of cellular growth inhibition
Outline: as §1

NCI-H460 = settings: Homo sapiens; NCI-H460, Non-Small Cell Lung Cancer; single dose 10 µM, 48 h; read-out: Percentage of cellular growth inhibition
Outline: as §1

HOP-62 = settings: Homo sapiens; HOP-62, Non-Small Cell Lung Cancer; single dose 10 µM, 48 h; read-out: Percentage of cellular growth inhibition
Outline: as §1

OVCAR-5 = settings: Homo sapiens; OVCAR-5, Ovarian Cancer; single dose 10 µM, 48 h; read-out: Percentage of cellular growth inhibition
Outline: as §1

KM12 = settings: Homo sapiens; KM12, Colon Cancer; single dose 10 µM, 48 h; read-out: Percentage of cellular growth inhibition
Outline: as §1

DU-145 = settings: Homo sapiens; DU-145, Prostate Cancer; single dose 10 µM, 48 h; read-out: Percentage of cellular growth inhibition
Outline: as §1

CCOc1ccc(/N=N/c2sc(Nc3cccc(Nc4nc(C)c(/N=N/c5ccc(OCC)cc5)s4)c3)nc2C)cc1 [5b, N^1,N^3-bis(5-((4-ethoxyphenyl)diazinyl)-4-methylthiazol-2-yl)benzene-1,3-diamine]
inhibition at 10 µM (M14): -7%
inhibition at 10 µM (BT-549): -3.7%
inhibition at 10 µM (SF-268): 4.5%
inhibition at 10 µM (SK-OV-3): 1.1%
inhibition at 10 µM (SN12C): 4.7%
inhibition at 10 µM (U251): 3.3%
inhibition at 10 µM (OVCAR-4): 0.1%
inhibition at 10 µM (MALME-3M): -6.9%
inhibition at 10 µM (K-562): -0.4%
inhibition at 10 µM (EKVX): 6.5%
inhibition at 10 µM (A549/ATCC): 12.5%
inhibition at 10 µM (OVCAR-8): -4%
inhibition at 10 µM (NCI/ADR-RES): 1.5%
inhibition at 10 µM (UO-31): 12.4%
inhibition at 10 µM (HCC-2998): -4.6%
inhibition at 10 µM (HCT-116): 3.8%
inhibition at 10 µM (NCI-H460): -6.8%
inhibition at 10 µM (HOP-62): -1.3%
inhibition at 10 µM (OVCAR-5): 9%
inhibition at 10 µM (KM12): -0.8%
inhibition at 10 µM (DU-145): -3.9%

CC(=O)c1sc(Nc2cccc(Nc3nc(C)c(C(C)=O)s3)c2)nc1C [3b, 1,1’-(2,2’-(1,3-Phenylenebis(azanediyl))bis(4-methylthiazole-5,2-diyl))diethanone]
inhibition at 10 µM (M14): 48.7%
inhibition at 10 µM (BT-549): 53.8%
inhibition at 10 µM (SF-268): 28.9%
inhibition at 10 µM (SK-OV-3): 74.2%
inhibition at 10 µM (SN12C): 45%
inhibition at 10 µM (U251): 34.3%
inhibition at 10 µM (OVCAR-4): 48.5%
inhibition at 10 µM (MALME-3M): 30.2%
inhibition at 10 µM (K-562): 59.1%
inhibition at 10 µM (EKVX): 31.2%
inhibition at 10 µM (A549/ATCC): 34.2%
inhibition at 10 µM (OVCAR-8): 56.6%
inhibition at 10 µM (NCI/ADR-RES): 44.4%
inhibition at 10 µM (UO-31): 67.8%
inhibition at 10 µM (HCC-2998): 19.9%
inhibition at 10 µM (HCT-116): 55.8%
inhibition at 10 µM (NCI-H460): 54.4%
inhibition at 10 µM (HOP-62): 22.2%
inhibition at 10 µM (OVCAR-5): 16.5%
inhibition at 10 µM (KM12): 39.8%
inhibition at 10 µM (DU-145): 54.6%

c1ccc(/N=c2\scc(-c3ccccc3)n2-c2cccc(-n3c(-c4ccccc4)cs/c3=N\c3ccccc3)c2)cc1 [8a, N,N’-(3,3’-(1,3-phenylene)bis(4-phenylthiazole-3(3H)-yl-2(3H)-ylidene))dianiline]
inhibition at 10 µM (M14): -14.3%
inhibition at 10 µM (BT-549): -31.8%
inhibition at 10 µM (SF-268): 0.3%
inhibition at 10 µM (SK-OV-3): -34.8%
inhibition at 10 µM (SN12C): 3.9%
inhibition at 10 µM (U251): 2.7%
inhibition at 10 µM (OVCAR-4): 5.3%
inhibition at 10 µM (MALME-3M): 3%
inhibition at 10 µM (K-562): 7.8%
inhibition at 10 µM (EKVX): 5.3%
inhibition at 10 µM (A549/ATCC): -4.9%
inhibition at 10 µM (OVCAR-8): -1.5%
inhibition at 10 µM (NCI/ADR-RES): -5%
inhibition at 10 µM (UO-31): 25.4%
inhibition at 10 µM (HCC-2998): -22.2%
inhibition at 10 µM (HCT-116): -4.1%
inhibition at 10 µM (NCI-H460): -6.3%
inhibition at 10 µM (HOP-62): -12.6%
inhibition at 10 µM (OVCAR-5): -2.9%
inhibition at 10 µM (KM12): 1.1%
inhibition at 10 µM (DU-145): -3.2%

NC(=S)Nc1cccc(NC(N)=S)c1 [compound 2, 1,1′-(1,3-phenylene)bis(thiourea)]
inhibition at 10 µM (M14): -25.1%
inhibition at 10 µM (BT-549): -14.6%
inhibition at 10 µM (SF-268): 9.1%
inhibition at 10 µM (SK-OV-3): -25.8%
inhibition at 10 µM (SN12C): 18.1%
inhibition at 10 µM (U251): 11.2%
inhibition at 10 µM (OVCAR-4): 5.4%
inhibition at 10 µM (MALME-3M): 15.7%
inhibition at 10 µM (K-562): 90.7%
inhibition at 10 µM (EKVX): -1.3%
inhibition at 10 µM (A549/ATCC): 6.1%
inhibition at 10 µM (OVCAR-8): 6%
inhibition at 10 µM (NCI/ADR-RES): 2.4%
inhibition at 10 µM (UO-31): 30%
inhibition at 10 µM (HCC-2998): -16.9%
inhibition at 10 µM (HCT-116): -7%
inhibition at 10 µM (NCI-H460): -9.7%
inhibition at 10 µM (HOP-62): -19.5%
inhibition at 10 µM (OVCAR-5): -3.6%
inhibition at 10 µM (KM12): 12.4%
inhibition at 10 µM (DU-145): -1.2%

c1ccc(-c2csc(Nc3cccc(Nc4nc(-c5ccccc5)cs4)c3)n2)cc1 [6a, N^1,N^3-bis(4-phenylthiazol-2-yl)benzene-1,3-diamine]
inhibition at 10 µM (M14): 52.2%
inhibition at 10 µM (BT-549): 68.3%
inhibition at 10 µM (SF-268): 59.4%
inhibition at 10 µM (SK-OV-3): 2.5%
inhibition at 10 µM (SN12C): 56.6%
inhibition at 10 µM (U251): 48.8%
inhibition at 10 µM (OVCAR-4): 62.4%
inhibition at 10 µM (MALME-3M): 47.2%
inhibition at 10 µM (K-562): 73.4%
inhibition at 10 µM (EKVX): 62.3%
inhibition at 10 µM (A549/ATCC): 55.8%
inhibition at 10 µM (OVCAR-8): 60.1%
inhibition at 10 µM (NCI/ADR-RES): 73.9%
inhibition at 10 µM (UO-31): 67.7%
inhibition at 10 µM (HCC-2998): 64.5%
inhibition at 10 µM (HCT-116): 60%
inhibition at 10 µM (NCI-H460): 73.1%
inhibition at 10 µM (HOP-62): 27%
inhibition at 10 µM (OVCAR-5): 35.5%
inhibition at 10 µM (KM12): 98.9%
inhibition at 10 µM (DU-145): 41.1%

Cc1nc(Nc2cccc(Nc3nc(C)c(N=Nc4ccccc4)s3)c2)sc1N=Nc1ccccc1 [5a, N^1,N^3-bis(4-methyl-5-(phenyldiazenyl)thiazol-2-yl)benzene-1,3-diamine]
inhibition at 10 µM (M14): -7.6%
inhibition at 10 µM (BT-549): 5.8%
inhibition at 10 µM (SF-268): 42.4%
inhibition at 10 µM (SK-OV-3): -6.6%
inhibition at 10 µM (SN12C): 53.9%
inhibition at 10 µM (U251): 30.1%
inhibition at 10 µM (OVCAR-4): 30.8%
inhibition at 10 µM (MALME-3M): -7.7%
inhibition at 10 µM (K-562): 32.9%
inhibition at 10 µM (EKVX): 16.9%
inhibition at 10 µM (A549/ATCC): 36.4%
inhibition at 10 µM (OVCAR-8): 33.4%
inhibition at 10 µM (NCI/ADR-RES): 10.2%
inhibition at 10 µM (UO-31): 69.7%
inhibition at 10 µM (HCC-2998): -0.4%
inhibition at 10 µM (HCT-116): 14.1%
inhibition at 10 µM (NCI-H460): 3.2%
inhibition at 10 µM (HOP-62): 9.3%
inhibition at 10 µM (OVCAR-5): 19.8%
inhibition at 10 µM (KM12): 52.1%
inhibition at 10 µM (DU-145): 16.6%
